Measurements reported in patent publication US6887705B1, “Tyrosine phosphorylated cleavage furrow-associated proteins (PSTPIPs)” (Genentech, Inc., priority 1997, dated 2005).

Columns and labels:
[1] = test system: PSTPIP tyrosine phosphorylation; assay: Tyrosine phosphorylation of endogenous PSTPIP in Baf3 cells; assay type: cell-based, murine
Procedure: Baf3 cells were lysed in 1% Triton, 50 mM HEPES. 10% glycerol and 5 mM EDTA containing 1 μg/ml aprotinin, PMSF, leupeptin and pepstatin were 1 mM Sodium Vanadate and 10 mM Iodoacetic acid. Cells were treated with 0.1 mM Pervanadate for 4 hours before lysis. Immunoprecipitations were performed in the vanadate-containing lysis buffer using 1 μg/ml anti-PSTPIP polyclonal antibody and 400 μg of lysate protein at 4° C. overnight. Western blots were performed using 1 μg/ml affinity purified anti-PSTPIP or 1:5000 dilution of commercial 4G10 anti-phosphotyrosine monoclonal (Upstate Biotech). Signal was detected by HRPO-ECL reagents (Pierce). The C221-S mutant was as previously described (Cheng et al., (1996) supra). The PTP HSCF D197-A mutant was generated using PCR. Mutagenesis primer D197A.F ([…]) (SEQ ID NO:24), corresponding to nucleotide 591, and primer D197A.R ([…]) (SEQ ID NO:25) which corresponds to the stop codon, were used in PCR to generate a fragment that could be cut with Mscl and XbaI. pRK.HA.38 WT, a plasmid which encoded the wild type enzyme under the control of the cytomegalovirus promoter (Cheng et al., (1996) supra), was digested with Clal and Mscl and the resulting 600 bp fragment was ligated with the Mscl-Xbal PCR fragment into the Clal and Xbal sites of the pRK.tkneo. […]

[2] = molecular target: T1, interaction between PTP HSCF and PSTPIP (Mus musculus, UniProt P97814); assay: Peptide inhibition of in vitro binding of PSTPIP to GST-PTP HSCF fusion; parameters: species or system murine; conditions: GST-PST-rich+CTH PTP HSCF precipitating in vitro translated PSTPIP, varying amounts of peptide
T1 construct: made in house; host or cells: GST fusion: E. coli DH5-alpha; PSTPIP: in vitro transcription/translation in rabbit reticulocyte lysate (Promega TnT)
T1 sequence (P97814 1-415): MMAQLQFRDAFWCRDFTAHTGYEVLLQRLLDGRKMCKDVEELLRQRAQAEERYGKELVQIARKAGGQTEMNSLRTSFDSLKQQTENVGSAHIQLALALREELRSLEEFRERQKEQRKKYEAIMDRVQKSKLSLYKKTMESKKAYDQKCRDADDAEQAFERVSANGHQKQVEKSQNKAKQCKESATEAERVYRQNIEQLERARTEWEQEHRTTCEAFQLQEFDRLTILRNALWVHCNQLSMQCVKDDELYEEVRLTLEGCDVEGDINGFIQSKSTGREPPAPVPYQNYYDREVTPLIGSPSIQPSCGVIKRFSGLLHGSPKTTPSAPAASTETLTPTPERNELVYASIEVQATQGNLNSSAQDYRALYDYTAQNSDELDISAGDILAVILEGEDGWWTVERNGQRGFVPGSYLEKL
Procedure: The binding was carried out according to the method of Wong and Johnson (Wong et al., J. Biol. Chem. 271(35):20981-20984 (1996)). Briefly, 1 μg of plasmid with either the PSTPIP protein or PTP HSCF under the control of the Sp6 promoter was in vitro transcribed/translated using the Promega™ TnT Rabbit Reticulocyte™ system. Samples were diluted in 50 mM HEPES, pH 7.2, 1% triton X 100, 10% glycerol, 100 mM NaCl, 5 mM EDTA and 2 μg/ml each of leupeptin, pepstatin, aprotinin, and PMSF. […] This was reacted for 1 hour at 4° C. and then the resin washed 6 times in HEPES/Triton binding buffer before SDS gel electrophoresis. The peptides were synthesized on an automated Milligen 9050 Peptide Synthesizer using standard solid phase chemistry with FMOC protected amino acids on a p-alkoxybenzyl alcohol resin. Dried peptides were re-suspended in the HEPES/Triton Binding buffer at a concentration of 10 mg/ml. Peptide inhibition was performed by adding the peptide first to the in vitro translation product and then the GST-fusion followed by the GSH-Sepharose. […]
In vitro binding analyses between various PTP HSCF and PST PIP constructs were performed as previously described (Spencer et al, (1997), supra). […] Samples were than reacted with GST fusion proteins at various concentrations, and the bound proteins were centrifuged using glutathione-sepharose beads and analyzed on SDS polyacrylamide gels. […]

Compound	tyrosine phosphorylation of endogenous PSTPIP [1]	blocking of the PTP HSCF-PSTPIP interaction by peptide [2]
[O]=[V]([O-])([O-])[O-] [vanadate]	significantly enhanced	–
GGVLRSISVPAPPTLPMADT [PXXP-CONTROL]	–	completely unable to block the interaction
